Measurements published in US6495376B1, “Methods and compositions for regulating protein-protein interactions” (Beth Israel Deaconess Medical Center, priority 1999, dated 2002).

What was measured:
[1] = tested on: MPM-2 antigens (mitotic phosphoproteins) of mitotic HeLa cell extracts; test: GST pulldown from mitotic HeLa cell extracts, MPM-2 immunoblotting (phosphoprotein-binding activity); conditions: for Phosphoprotein binding activity: GST-fusion proteins with mitotic extracts, MPM2 antibody; for binding to mitotic phosphoproteins / MPM-2 antigens (in words): mitotic HeLa cell extracts; for effect of phosphorylation by PKA on interaction with MPM2 antigens: protein phosphorylated by PKA before binding
Description: GST-fusion proteins containing the WW-domain, PPIase-domain or the entire Pin 1 protein were prepared and incubated with interphase (G1/S arrested; Control) or dividing (M phase) HeLa cell extracts using well-known procedures (Lu, K. P., et al., Nature 380:544 (1996); (Shen, M., et al., Genes & Devl. 12:706 (1998)). Briefly, HeLa cells were arrested at the G1/S boundary or mitosis by incubation with thymidine and aphidicolin or nocodazole for 16 h, respectively. The cells were lysed and supernatants incubated with 10 μl of agarose beads containing GST-Pin1; GST-WW-domain of Pin1; GST-PPIase domain of Pin1; or control GST for 2 h at 4° C. The phosphorylated precipitated proteins were washed 5 times in buffer containing 1% Triton X-100 before subjecting to immunoblotting analysis using MPM-2 antibody, as described previously (Yaffe, M. B. et al., Science 278:1957 (1997); Schukowski, et al., Biochemistry 37:5566 (1998); Shen, M. et al., Genes & Dev 12:706 (1998)). MPM-2 recognizes a subset of mitotic phosphoproteins including Pin1-binding proteins such as cdc25.
Pintide and its nonphosphorylated counterpart were synthesized and incubated with GST-Pin1 or the GST-WW-domain of Pin1 in a binding buffer, using established procedures (Shen, M. et al., Genes & Dev 12:706 (1998)). After a 1 hr incubation, mitotic HeLa cell extracts were added and subjected to GST pull down experiments, followed by immunoblotting analysis using the MPM-2 antibody. To obtain semi-quantitative data, films of immunoblots were scanned at the region of 55 kDa, the major Pin1-binding protein, and data analyzed using ImageQuan (ScanJet II CX). The peptide binding constants were measured using a fluorescence polarization assay (Jiskoot, W. et al., Anal Biochem 196:421 (1991)). Peptides were fluorescein labeled at the N-terminus using the Fluorescein Amine Labeling Kit (Pan Vera Corp.) and purified by TLC according to the manufacturer's […]. To prevent nonspecific labeling, a Pintide analogue (WFYpSPFLE) SEQ ID NO: 8 and the nonphosphorylated control were used. Various concentrations of Pin1 and its mutant proteins were incubated with 0.1 μM of the labeled peptides in a binding buffer containing 50 mM HEPES, pH 7.4, 100 mM NaCl, 2% glycerol. Fluorescence polarization values were obtained using a Pan Vera Beacon 2000 system, as described by the manufacturer.
To examine the effect of Pin1 phosphorylation on Pin1 binding to ligands, Pin1 and Pin1 mutant proteins were incubated with the catalytic subunit of PKA and PKC (a mixture of α, β and γ, UBI) in a kinase reaction buffer containing 500 μM cold ATP at 30° C. for 15 min (Lu, K. P. et al., Anal. Biochem. 196:421 (1991)). The reactions were stopped by adding SDS sample buffer and reaction products separated on SDS-gels, followed by autoradiography. Pin1 proteins were isolated and used to bind MPM-2 antigens from mitotic extracts from HeLa cells, as previously described (Shen, M., et al., Genes & Dev 12:706 (1998)). Experiments were also performed with PKA and PKC, casein kinase, cyclin B/Cdc2 and SRPK1 kinases.

peptide substrate = test: PPIase activity assay with peptide substrate; format: biochemical; conditions: relative to wild-type protein defined as 100%
[2] = tested on: mitotically phosphorylated Cdc25C; test: GST pull down of phosphorylated Cdc25C and CIP dephosphorylation; format: binding; conditions: for protection of bound Cdc25C from dephosphorylation by CIP: Cdc25C precipitated on GST beads, then CIP; for binding to Cdc25C (in words): mitotic versus interphase phosphorylated form
From the text: To confirm that Nedd4 WW-domains bind a specific phosphoprotein in a phosphorylation-dependent manner interactions between Nedd4 WW-domains and Cdc25C were examined. To various degrees, all three Nedd4 WW-domains bound the mitotically phosphorylated form, but not the interphase phosphorylated form of both HeLa Cdc25C and in vitro synthesized Xenopus Cdc25C. […] The Kd values for the phosphopeptides were also lower than those for the Pro-rich peptide that was thought to be a Nedd4 WW-domain-binding site (Table 1) (Chen, H. I., et al., Proc. Natl. Acad. Sci. USA 92:7819 (1995); Staub, O., et al., EMBO J. 15:2371 (1996); Bedford, M. J., et al., EMBO J., 16:2376 (1997)).
Interactions between the WW-domain of Pin1 and specific phosphorylated ligands were examined. To detect phosphorylation-dependent interaction, Cdc25C, Plk1 and Pin1 ligands, were synthesized by in vitro transcription and translation in the presence of ^35S-Met and incubated with Xenopus interphase or mitotic extracts or mitotic extracts followed by treatment with calf intestine phosphatase (M+CIP). Protein complexes were separated on SDS-gels either directly (input) or first subjected to GST pull down with the N-terminal WW-domain (amino acids 1-54) or C-terminal PPIase domain (amino acids 47-163) or the entire Pin1 protein (Shen, M. et al., Genes & Dev 12:706 (1998)). The labeled protein-GST bead complexes were washed extensively and bound proteins analyzed by SDS-PAGE and autoradiography using standard techniques.
To determine whether WW-domain binding protects dephosphorylation of its targets ^35S labeled (His)6 epitope tagged Cdc25C was phosphorylated by mitotic extracts and precipitated by GST fusion protein beads or Ni-NTA beads. The isolated Cdc25C was then incubated with control buffer or CIP, followed by separation on SDS-containing gels and autoradiography.

[3] = tested on: neurofibrillary tangles in AD brain sections; test: Binding of recombinant Pin1 added onto brain sections, immunostaining; set-up: species or system human; conditions: Pin1 at 0.5 μM
Description: To further confirm that Pin1 has specific affinity for PHFs, recombinant Pin1 was added onto brain sections, washed, and then subjected to immunostaining using affinity purified Pin1 antibodies to localize bound Pin1. To localization exogenously added Pin1 in brain sections, 50 μm sections were cut from formalin fixed frontal cortex or hippocampus of human brains, endogenous peroxidase activity blocked with H2O2, followed by incubation with Pin1 at 0.5 μM. The sections were incubated with the mAb TG3 or anti-Pin1 antibodies that had been purified using GST-Pin1 glutathione beads, and visualized by the immunoperoxidase staining protocol, to detect endogenous Pin1, fixed brain sections were first microwaved in an antigen retrieval buffer (Biogenex), as described by the manufacturer, then subjected to immunostaining procedure.

[4] = biological target: EQPLpTPVTDL (Cdc25 Peptide); test: Fluorescence anisotropy binding to fluorescein-labeled phosphorylated Cdc25 peptide; conditions: GST-WW-domains
[…] (Pro-Rich) = Fluorescence anisotropy binding to fluorescein-labeled Pro-rich peptide; conditions: GST-WW-domains; † estimated Kd, no plateau at 100 μM WW-domain

Substance | Phosphoprotein binding activity [1] | binding to mitotic phosphoproteins / MPM-2 antigens (in words) [1] | effect of phosphorylation by PKA on interaction with MPM2 antigens [1] | PPlase Activity (%) (peptide substrate) | protection of bound Cdc25C from dephosphorylation by CIP [2] | binding to Cdc25C (in words) [2] | binding in AD brain sections [3] | Kd [4] [µM] | Kd (μM) Pro-Rich IPGTPPPNYD ([…] (Pro-Rich))
Pin1: wild-type human prolyl isomerase (PPIase) Pin1 with N-terminal WW-domain; tag cleaved in Table 2 | + (binding was detected) | strong binding | completely abolished | 100 | CIP failed to dephosphorylate Cdc25C | bound the phosphorylated Cdc25C in mitotic cell extracts, but not interphase extracts | strongly bound neurofibrillary tangles and neurites |  | 
Pin1 WW-domain: N-terminal WW-domain (amino acids 1-54) of Pin1 (MADEEKLPPGWEKRMSRSSGRVYYFNHITNASQWERPSGNSSSGGKNGQGEPAR; left off: a dimerising Fc or GST) | + (binding was detected) | strong binding | completely abolished |  | CIP failed to dephosphorylate Cdc25C | bound the phosphorylated Cdc25C in mitotic cell extracts, but not interphase extracts |  | 2.2 | N.B.
